Measurements reported in the supplement of paper PMC10307832.

How the values were obtained:
Assay in all cases: relative viability (nuclei count vs DMSO), 5 days (fraction); higher = more cells survive
[1] = system: COR-L 105
Procedure, shortened: (§1)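 Relative viability divides the nuclei count in treated wells by that in vehicle wells. Lung cancer cell lines were seeded in 1536-well plates, dosed by pin tool the next day, and fixed and stained after 5 days in one step with final 0.05% Triton X-100, 1% formaldehyde and 1 ug/ml Hoechst. Dosing was a single drug or a fixed anchor-drug dose plus five library-drug doses (not always all listed) in √10 steps, and values are medians of duplicate plates imaged at 4×.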

[2] = system: LCLC-103H
Procedure, shortened: as §1

[3] = system: LK-2
Procedure, shortened: as §1

[4] = system: NCI-H1355
Procedure, shortened: as §1

[5] = system: NCI-H1623
Procedure, shortened: as §1

[6] = system: NCI-H1666
Procedure, shortened: as §1

[7] = system: NCI-H520
Procedure, shortened: as §1

[8] = system: NCI-H522
Procedure, shortened: as §1

Question: What does the source list for `Cc1sc2c(c1C)C(c1ccc(Cl)cc1)=N[C@@H](CC(=O)OC(C)(C)C)c1nnc(C)n1-2` [JQ1] + Cc1nc(Nc2ncc(C(=O)Nc3c(C)cccc3Cl)s2)cc(N2CCN(CCO)CC2)n1 [Dasatinib] (partner 0.075 µM)?
Answer: relative viability ([1]; first compound 0.04 µM): 0.297; relative viability ([1]; first compound 0.1265 µM): 0.186; relative viability ([1]; first compound 0.4 µM): 0.156; relative viability ([1]; first compound 1.265 µM): 0.119; relative viability ([1]; first compound 4 µM): 0.132; relative viability ([2]; first compound 0.04 µM): 0.433; relative viability ([2]; first compound 0.1265 µM): 0.418; relative viability ([2]; first compound 0.4 µM): 0.464; relative viability ([2]; first compound 1.265 µM): 0.327; relative viability ([2]; first compound 4 µM): 0.266; relative viability ([3]; first compound 0.04 µM): 0.254; relative viability ([3]; first compound 0.1265 µM): 0.156; relative viability ([3]; first compound 0.4 µM): 0.162; relative viability ([3]; first compound 1.265 µM): 0.108; relative viability ([3]; first compound 4 µM): 0.112; relative viability ([4]; first compound 0.04 µM): 0.774; relative viability ([4]; first compound 0.1265 µM): 0.578; relative viability ([4]; first compound 0.4 µM): 0.617; relative viability ([4]; first compound 1.265 µM): 0.486; relative viability ([4]; first compound 4 µM): 0.447; relative viability ([5]; first compound 0.04 µM): 0.634; relative viability ([5]; first compound 0.1265 µM): 0.483; relative viability ([5]; first compound 0.4 µM): 0.466; relative viability ([5]; first compound 1.265 µM): 0.357; relative viability ([5]; first compound 4 µM): 0.32; relative viability ([6]; first compound 0.04 µM): 0.791; relative viability ([6]; first compound 0.1265 µM): 0.593; relative viability ([6]; first compound 0.4 µM): 0.587; relative viability ([6]; first compound 1.265 µM): 0.554; relative viability ([6]; first compound 4 µM): 0.504; relative viability ([7]; first compound 0.04 µM): 0.206; relative viability ([7]; first compound 0.1265 µM): 0.196; relative viability ([7]; first compound 0.4 µM): 0.207; relative viability ([7]; first compound 1.265 µM): 0.159; relative viability ([7]; first compound 4 µM): 0.221; relative viability ([8]; first compound 0.04 µM): 0.951; relative viability ([8]; first compound 0.1265 µM): 0.641; relative viability ([8]; first compound 0.4 µM): 0.584; relative viability ([8]; first compound 1.265 µM): 0.575; relative viability ([8]; first compound 4 µM): 0.537

Question: What does the source list for `Nc1ccn([C@@H]2O[C@H](CO)[C@@H](O)[C@@H]2O)c(=O)n1` [Cytarabine] + CCNC(=O)c1noc(-c2cc(C(C)C)c(O)cc2O)c1-c1ccc(CN2CCOCC2)cc1 [Luminespib] (partner 0.01 µM)?
Answer: relative viability ([1]; first compound 0.005 µM): 0.783; relative viability ([1]; first compound 0.01581 µM): 0.667; relative viability ([1]; first compound 0.05 µM): 0.739; relative viability ([1]; first compound 0.1581 µM): 0.405; relative viability ([1]; first compound 0.5 µM): 0.278; relative viability ([2]; first compound 0.005 µM): 0.96; relative viability ([2]; first compound 0.01581 µM): 1.05; relative viability ([2]; first compound 0.05 µM): 1.03; relative viability ([2]; first compound 0.1581 µM): 0.909; relative viability ([2]; first compound 0.5 µM): 0.947; relative viability ([3]; first compound 0.005 µM): 0.193; relative viability ([3]; first compound 0.01581 µM): 0.187; relative viability ([3]; first compound 0.05 µM): 0.197; relative viability ([3]; first compound 0.1581 µM): 0.155; relative viability ([3]; first compound 0.5 µM): 0.176; relative viability ([4]; first compound 0.005 µM): 0.612; relative viability ([4]; first compound 0.01581 µM): 0.734; relative viability ([4]; first compound 0.05 µM): 0.623; relative viability ([4]; first compound 0.1581 µM): 0.344; relative viability ([4]; first compound 0.5 µM): 0.402; relative viability ([5]; first compound 0.005 µM): 0.321; relative viability ([5]; first compound 0.01581 µM): 0.361; relative viability ([5]; first compound 0.05 µM): 0.316; relative viability ([5]; first compound 0.1581 µM): 0.232; relative viability ([5]; first compound 0.5 µM): 0.234; relative viability ([6]; first compound 0.005 µM): 1.01; relative viability ([6]; first compound 0.01581 µM): 0.94; relative viability ([6]; first compound 0.05 µM): 0.675; relative viability ([6]; first compound 0.1581 µM): 0.539; relative viability ([6]; first compound 0.5 µM): 0.579; relative viability ([7]; first compound 0.005 µM): 0.218; relative viability ([7]; first compound 0.01581 µM): 0.216; relative viability ([7]; first compound 0.05 µM): 0.2; relative viability ([7]; first compound 0.1581 µM): 0.233; relative viability ([7]; first compound 0.5 µM): 0.223; relative viability ([8]; first compound 0.005 µM): 1.09; relative viability ([8]; first compound 0.01581 µM): 0.953; relative viability ([8]; first compound 0.05 µM): 0.968; relative viability ([8]; first compound 0.1581 µM): 0.422; relative viability ([8]; first compound 0.5 µM): 0.438

Question: Which results are given for `Cc1sc2c(c1C)C(c1ccc(Cl)cc1)=N[C@@H](CC(=O)OC(C)(C)C)c1nnc(C)n1-2` [JQ1] + CCNC(=O)c1noc(-c2cc(C(C)C)c(O)cc2O)c1-c1ccc(CN2CCOCC2)cc1 [Luminespib] (partner 0.01 µM)?
Answer: relative viability ([1]; first compound 0.04 µM): 0.66; relative viability ([1]; first compound 0.1265 µM): 0.49; relative viability ([1]; first compound 0.4 µM): 0.369; relative viability ([1]; first compound 1.265 µM): 0.239; relative viability ([1]; first compound 4 µM): 0.206; relative viability ([2]; first compound 0.04 µM): 0.973; relative viability ([2]; first compound 0.1265 µM): 0.85; relative viability ([2]; first compound 0.4 µM): 0.533; relative viability ([2]; first compound 1.265 µM): 0.47; relative viability ([2]; first compound 4 µM): 0.358; relative viability ([3]; first compound 0.04 µM): 0.188; relative viability ([3]; first compound 0.1265 µM): 0.157; relative viability ([3]; first compound 0.4 µM): 0.143; relative viability ([3]; first compound 1.265 µM): 0.142; relative viability ([3]; first compound 4 µM): 0.136; relative viability ([4]; first compound 0.04 µM): 0.715; relative viability ([4]; first compound 0.1265 µM): 0.715; relative viability ([4]; first compound 0.4 µM): 0.453; relative viability ([4]; first compound 1.265 µM): 0.359; relative viability ([4]; first compound 4 µM): 0.339; relative viability ([5]; first compound 0.04 µM): 0.543; relative viability ([5]; first compound 0.1265 µM): 0.593; relative viability ([5]; first compound 0.4 µM): 0.459; relative viability ([5]; first compound 1.265 µM): 0.466; relative viability ([5]; first compound 4 µM): 0.418; relative viability ([6]; first compound 0.04 µM): 1.03; relative viability ([6]; first compound 0.1265 µM): 0.916; relative viability ([6]; first compound 0.4 µM): 0.908; relative viability ([6]; first compound 1.265 µM): 0.669; relative viability ([6]; first compound 4 µM): 0.64; relative viability ([7]; first compound 0.04 µM): 0.224; relative viability ([7]; first compound 0.1265 µM): 0.244; relative viability ([7]; first compound 0.4 µM): 0.218; relative viability ([7]; first compound 1.265 µM): 0.25; relative viability ([7]; first compound 4 µM): 0.229; relative viability ([8]; first compound 0.04 µM): 1.12; relative viability ([8]; first compound 0.1265 µM): 1.21; relative viability ([8]; first compound 0.4 µM): 0.677; relative viability ([8]; first compound 1.265 µM): 0.601; relative viability ([8]; first compound 4 µM): 0.504
